The results in this text go back to patent US9814758B2, “Inhibitors of apoptosis and uses thereof” (CENTRE NATIONAL DE LA RECHERCHE SCIENTIFIQUE-CNRS, priority 2010, dated 2017).

Non-standard residues stand in square brackets, D forms with d. No end group written: not given here. Ahx = NCCCCCC(=O)O; βAla = NCCC(=O)O

The test system of one assay is primary cardiomyocytes. The assay can be described thus: STS-induced DNA fragmentation (Cell Death detection ELISA PLUS) in primary cardiomyocytes. To be noted: for decrease in apoptosis: cardiomyocytes, STS + 1 μM peptide, FIG. 9; for anti-apoptotic effect compared with Tat-DAXXp: primary cardiomyocytes, against STS. The assay is classed as cell-based, mouse. Here is the method:
(§1) FIG. 5: In vitro evaluation of the anti-apoptotic activity of CPPs and CPP-conjugates. Workflow and quantitation of DNA fragmentation in (A) C2C12 cells, (B) primary cardiomyocytes, (C) H9c2 cells and (D) NG108-15 cells. Data were normalized to 100% STS. Data shown are the means±SEM, with n≧5. Cells were seeded in 24-well plates and grown overnight. The next day, the cells were incubated with STS alone or with STS+1 μM peptide (in OPTI-MEM) (OPTI-MEM® is a modification of Eagle's Minimum Essential Media, buffered with HEPES and sodium bicarbonate, and supplemented with hypoxanthine, thymidine, sodium pyruvate, L-glutamine, trace elements, and growth factors) (STS concentration and incubation time for each cells are given in the figure). Thereafter, solutions were removed, replaced by complete medium and further incubated for 40 h. Following the regeneration phase, the cells were lyzed and DNA fragmentation was detected according to manufacturer's instructions (Cell Death detection ELISA^PLUS kit—Roche Diagnostics).
FIG. 6: Anti-apoptotic activity of variants of the Tat-DAXXp sequence on primary cardiomyocytes. As described in the caption of FIG. 5, the different analogues of the DAXXp sequence (see Table 2) were assessed for anti-apoptotic properties against STS (Cell Death detection ELISA^PLUS kit—Roche Diagnostics) (A-B). None of the analogues were able to protect the primary cardiomyocytes—a fact which confirms that the 16mer DAXXp has the optimal length and sequence for highest cardioprotective effect.
FIG. 7: Comparison of the murine/rat DAXXp with the human DAXXp sequence in terms of anti-apoptotic activity on C2C12 cells, primary cardiomyocytes, and H9c2. The murine DAXXp sequence conjugated to Tat (Tat-mDAXXp—SEQ ID NO: 61) which is identical to the rat DAXXp sequence (see FIG. 1B), was compared to the human construct (Tat-DAXXp) in terms of anti-apoptotic properties against STS (Cell Death detection ELISA^PLUS kit—Roche Diagnostics). The C2C12 cells and the primary cardiomyocytes used were from mice and the H9c2 cells from rat.
FIG. 9: Comparison of FADDp constructs with Tat-DAXXp in terms of anti-apoptotic activity in primary cardiomyocytes and in H9c2 cells. Quantification of DNA normalized to 100% STS. Data shown are the means±SEM, with n≧5. Cells were seeded in 24-well plates and grown overnight. The next day, the cells were incubated with STS alone or with STS+1 μM peptide (in OPTI-MEM®) (OPTI-MEM® is a modification of Eagle's Minimum Essential Media, buffered with HEPES and sodium bicarbonate, and supplemented with hypoxanthine, thymidine, sodium pyruvate, L-glutamine, trace elements, and growth factors) (STS concentration is given in the figure and incubation time is given in FIG. 5). Thereafter, solutions were removed, replaced by complete medium and further incubated for 40 hours. Following the regeneration phase, the cells were lyzed and DNA fragmentation was detected according to manufacturer's instructions (Cell Death detection ELISA^PLUS kit—Roche Diagnostics).
FIG. 10: Comparison of Tat-DAXXp and Tat-FADDp15 alone and in combination in primary cardiomyocytes (A) and in H9c2 cells (B).
(§2) Thereafter, the capacity of these peptides to inhibit apoptosis induced by staurosporine was evaluated. Apoptosis was determined using the Cell Death detection ELISA^PLUS kit (Roche) measuring the DNA fragmentation.
In most publications, anti-apoptotic peptides currently available in the art are administrated 3-4 hours prior to apoptosis induction, which is poorly relevant to a clinical application. For that reason, the protocol used in the present study included administration of the peptides together with the staurosporine. […] This was not observed with CPP alone or with the Tat-scrDAXXp or Tat-ncDAXXp negative controls. […] To better compare the results, the DNA fragmentation (described by the enrichment factor) is related to the staurosporine-treated cells (=100%).

In a further assay the test system is H9c2 cells. In words: STS-induced DNA fragmentation (Cell Death detection ELISA PLUS) in H9c2 cells. The assay is classed as cell-based, rat. Particulars: H9c2; against STS. The protocol:
as §1, with “Diagnostics). […]” for “Diagnostics).”
as §2
The anti-apoptotic effects of the peptides were also analyzed in murine NG118-15 (model for neuronal cells) (FIG. 5D), in murine C2C12 (model for muscle cells) (FIG. 5A) and in rat H9c2 (model for cardiac cells) (FIG. 5C). The highest reduction in DNA fragmentation were observed using Bpep-DAXXp in NG118-15 (66% reduction) using Tat-DAXXp in C2C12 (24% reduction) and Pip2b-DAXXp in H9c2 (31% reduction).

The next assay has as its system NG108-15 cells. In words: STS-induced DNA fragmentation (Cell Death detection ELISA PLUS) in NG108-15 cells. The assay is classed as cell-based. Particulars: murine NG118-15 (model for neuronal cells); FIG. 5D. The protocol:
as §1, with “Thereafter, solutions were removed, replaced by complete medium and further incubated for 40 h.” left out
as §2
(§3) The anti-apoptotic effects of the peptides were also analyzed in murine NG118-15 (model for neuronal cells) (FIG. 5D), in murine C2C12 (model for muscle cells) (FIG. 5A) and in rat H9c2 (model for cardiac cells) (FIG. 5C). […]
In general terms: ELISA stands for enzyme-linked immunosorbent assay.

Assay [1] has as its target T1, intracellular region of the Fas receptor (Homo sapiens, UniProt P25445).
T1 sequence (P25445 191-335 limits assumed): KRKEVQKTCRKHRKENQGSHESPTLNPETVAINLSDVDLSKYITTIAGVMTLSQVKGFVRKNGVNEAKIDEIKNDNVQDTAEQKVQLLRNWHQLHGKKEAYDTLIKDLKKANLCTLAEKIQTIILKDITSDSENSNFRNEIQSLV
The assay can be described thus: Binding affinities (Kd) by surface plasmon resonance (Biacore). To be noted: mean of three independent experiments, read-out: Kd ± SD. An excerpt:
Additionally, the potential interaction of the fragments with the intracellular region of the Fas receptor was cross-validated by measuring the binding affinities (Kd) using the surface plasmon resonance (SPR) technique (Biacore Life Science, Sweden).

The test system of another assay is C2C12 cells. In words: STS-induced DNA fragmentation (Cell Death detection ELISA PLUS) in C2C12 cells. The assay is classed as cell-based, mouse. Particulars: C2C12; against STS. Here is the method:
as §1, with “Thereafter, solutions were removed, replaced by complete medium and further incubated for 40 h.” left out, “Diagnostics). […]” for “Diagnostics).”
as §2, §3

Take “GRKKRRQRRRPPQ-KRKLERVQS-NH2 (GRKKRRQRRRPPQKRKLERVQS-NH2) [Tat-FADDp]”: the decrease in apoptosis in the assay on primary cardiomyocytes came to 35%. Further, the “anti-apoptotic effect compared with Tat-DAXXp” value in the assay with primary cardiomyocytes and with H9c2 cells was “less effective than Tat-DAXXp” in each case.
Consider “RXRRBRRXRRBRXB-KKSRKEKKQTGSGPLG-NH2 (R[Ahx]RR[βAla]RR[Ahx]RR[βAla]R[Ahx][βAla]KKSRKEKKQTGSGPLG-NH2; N-terminus assumed; SMILES CC(C)C[C@H](NC(=O)[C@@H]1CCCN1C(=O)CNC(=O)[C@H](CO)NC(=O)CNC(=O)[C@@H](NC(=O)[C@H](CCC(N)=O)NC(=O)[C@H](CCCCN)NC(=O)[C@H](CCCCN)NC(=O)[C@H](CCC(=O)O)NC(=O)[C@H](CCCCN)NC(=O)[C@H](CCCNC(=N)N)NC(=O)[C@H](CO)NC(=O)[C@H](CCCCN)NC(=O)[C@H](CCCCN)NC(=O)CCNC(=O)CCCCCNC(=O)[C@H](CCCNC(=N)N)NC(=O)CCNC(=O)[C@H](CCCNC(=N)N)NC(=O)[C@H](CCCNC(=N)N)NC(=O)CCCCCNC(=O)[C@H](CCCNC(=N)N)NC(=O)[C@H](CCCNC(=N)N)NC(=O)CCNC(=O)[C@H](CCCNC(=N)N)NC(=O)[C@H](CCCNC(=N)N)NC(=O)CCCCCNC(=O)[C@@H](N)CCCNC(=N)N)[C@@H](C)O)C(=O)NCC(N)=O) [Bpep-DAXXp]”, for which, in the assay with NG108-15 cells, the “reduction in DNA fragmentation” value turned out to be 66%.
For the substance “KKGRKQSGESLGTPKK-NH2 [scrDAXXp, KKGRKQSGESLGTPKK -NH2]”, the Kd (in general, a measure of binding affinity in units of concentration) in assay [1] was at least 6 mM.
Consider “GRKKRRQRRRPPQ-KRFRKEKKQLGSGLLG-NH2 (GRKKRRQRRRPPQKRFRKEKKQLGSGLLG-NH2) [Tat-mDAXXp]”, for which the “anti-apoptotic effect compared with Tat-DAXXp” value in the assay with primary cardiomyocytes, in the assay with C2C12 cells and with H9c2 cells was “increase in anti-apoptotic effect” in each case.
On to “GRKKRRQRRRPPQ-VGKRKLERVQSGLDL-NH2 (GRKKRRQRRRPPQVGKRKLERVQSGLDL-NH2) [Tat-FADDp15]”, for which the decrease in apoptosis in the assay on primary cardiomyocytes is 57%. In addition, the “anti-apoptotic effect compared with Tat-DAXXp” value is “increased anti-apoptotic effect” in the assay with primary cardiomyocytes and “equal” in the assay with H9c2 cells.
